Measurements from patent publication US8344158B2, “Fluorescent polymethine cyanine dyes” (Washington University, priority 2007, dated 2013).

Columns and labels:
[1] = Fluorescence spectroscopy (emission, relative quantum yield, brightness); type: physicochemical; details: for ΦF, relative fluorescence quantum yield: MeOH, ICG as standard; for λmax, em: in methanol (Table 1); for ΦB, relative brightness referenced to ICG: product of quantum yield and molar absorptivity, ICG = 1
Protocol: UV-Vis and Fluorescent Spectroscopic Analysis. Stock solutions (3.0 mM) of the dye and its conjugates were prepared by dissolving them in DMSO. […] The molar extinction coefficient was obtained using Beer's law at 0.1-0.6 μM concentration of the dye. The relative fluorescence quantum yield was determined using the equation: ΦF(x)=(As/Ax)(Fx/Fs)(nx/ns)^2ΦF(s)
where ΦF(X) is the fluorescence quantum yield, A is the absorbance, F is the area under the emission curve, n is the refractive index of the solvents used in measurement, and the subscripts s and x represent the standard and unknown, respectively. Indocyanine green (ICG) was used as a reference standard.

[2] = UV-Vis absorption spectroscopy; type: physicochemical; details: for ε / λmax: in 25% aqueous DMSO
Protocol: UV-Vis and Fluorescent Spectroscopic Analysis. Stock solutions (3.0 mM) of the dye and its conjugates were prepared by dissolving them in DMSO. […] The molar extinction coefficient was obtained using Beer's law at 0.1-0.6 μM concentration of the dye. […]

ΦF, relative fluorescence quantum yield [1] | λmax, em [1] [nm] | ΦB, relative brightness referenced to ICG [1] | λmax, abs [2] [nm] | ε [2] | λmax [2] [nm] | ε (molar absorptivity) [2] [M⁻¹ cm⁻¹] | SMILES
0.088 | 811 | 1.3 | 800 | 240 000 M^−1 cm^−1 | 800 | – | CC1(C)C(=CC=C2CCCC(C=CC3=[N+](CCCS(=O)(=O)[O-])c4ccc5ccccc5c4C3(C)C)=C2c2ccc(C(=O)O)cc2)N(CCCS(=O)(=O)[O-])c2ccc3ccccc3c21.[Na+] [Dye 2a]
0.092 | 811 | 1.4 | 800 | 240 000 M^−1 cm^−1 | 800 | – | CC1(C)C(=CC=C2CCCC(C=CC3=[N+](CCCCS(=O)(=O)[O-])c4ccc5ccccc5c4C3(C)C)=C2c2ccc(C(=O)O)cc2)N(CCCCS(=O)(=O)[O-])c2ccc3ccccc3c21.[Na+] [Dye 2b]
0.10 | 785 | 1.4 | 770 | 220 000 M^−1 cm^−1 | 770 | – | CC1(C)C(=CC=C2CCCC(C=CC3=[N+](CCCCS(=O)(=O)[O-])c4ccc(S(=O)(=O)[O-])cc4C3(C)C)=C2c2ccc(C(=O)O)cc2)N(CCCCS(=O)(=O)[O-])c2ccc(S(=O)(=O)[O-])cc21.[Na+].[Na+].[Na+] [Dye 2c]
– | 807 | 1 | 785 | – | – | 204000 | CC1(C)C(/C=C/C=C/C=C/C=C2\N(CCCCS(=O)(=O)O)c3ccc4ccccc4c3C2(C)C)=[N+](CCCCS(=O)(=O)[O-])c2ccc3ccccc3c21 [ICG, indocyanine green, reference compound]
